Results: US20180346473A1, “FUSED BICYCLIC COMPOUNDS” (Akarna Therapeutics, Ltd., priority 2017, published 2018)

Biological target: T1, FXR (Homo sapiens, UniProt Q96RI1)
T1 sequence (Q96RI1 1-486): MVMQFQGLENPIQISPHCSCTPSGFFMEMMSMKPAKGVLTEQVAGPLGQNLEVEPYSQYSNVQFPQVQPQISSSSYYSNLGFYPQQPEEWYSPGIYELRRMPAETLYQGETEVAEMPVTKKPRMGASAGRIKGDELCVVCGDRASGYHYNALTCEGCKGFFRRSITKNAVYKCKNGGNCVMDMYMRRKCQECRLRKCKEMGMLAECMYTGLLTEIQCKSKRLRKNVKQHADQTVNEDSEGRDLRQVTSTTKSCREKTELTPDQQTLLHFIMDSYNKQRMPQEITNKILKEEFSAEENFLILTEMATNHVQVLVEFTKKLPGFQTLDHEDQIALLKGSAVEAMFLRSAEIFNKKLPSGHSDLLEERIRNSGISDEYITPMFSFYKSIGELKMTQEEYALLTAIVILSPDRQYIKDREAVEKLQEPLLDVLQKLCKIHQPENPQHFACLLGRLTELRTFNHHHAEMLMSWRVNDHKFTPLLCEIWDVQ
Test: FXR Agonist Assay (Gaussia luciferase reporter in cells)
Type: cell-based
Details: 20 hours incubation at 37° C., Gaussia luciferase luminescence, normalized to DMSO control
Description: Starting from 3.33 mM of compound in DMSO solution, a 10-point 3-fold serial dilution was made by diluting 5 μL of compound into 10 μL of DMSO. The serially diluted compound was then diluted 1:33 into DMEM. This medium was then diluted ten-fold into the culture medium with the cells (10 μL/well). All concentration points are assayed in duplicate. Plates were incubated at 37° C. for 20 hours. After the incubation, 20 μL of culture medium were removed from each well and mixed with 50 μL of assay solution (Pierce™ Gaussia Luciferase Flash Assay Kit). The luminescence was measured immediately after addition of the Luc substrate with an Envision microplate reader. The raw data was uploaded to CDD and dose-response curves were generated using the Levenberg-Marquardt algorithm integrated into CDD. A negative control DMSO is included on each plate and used to normalize the data with the CDD built-in normalization function.

| EC50 [nM] | SMILES |
| --- | --- |
| < 500 | CC(C)NC(=O)C1=CN(C(=O)c2ccc(F)c(F)c2)CC(C)(C)c2c(C(F)(F)F)n[nH]c21 [Compound 1, (E)-6-(3,4-difluorobenzoyl)-N-isopropyl-4,4-dimethyl-3-(trifluoromethyl)-1,4,5,6-tetrahydropyrazolo[3,4-d]azepine-8-carboxamide] |
| < 500 | CC(C)OC(=O)C1=CN(C(=O)c2ccc(OCCN3CCOCC3)cc2)CC(C)(C)c2c(C(F)(F)F)n[nH]c21 [Compound 2, (E)-isopropyl 4,4-dimethyl-6-(4-(2-morpholinoethoxy)benzoyl)-3-(trifluoromethyl)-1,4,5,6-tetrahydropyrazolo[3,4-d]azepine-8-carboxylate] |
| < 500 | CC(C)OC(=O)C1=CN(C(=O)c2ccc(OCCN3CCOCC3)c(F)c2)CC(C)(C)c2c(C(F)(F)F)n[nH]c21 [Compound 3, (E)-isopropyl 6-(3-fluoro-4-(2-morpholinoethoxy)benzoyl)-4,4-dimethyl-3-(trifluoromethyl)-1,4,5,6-tetrahydropyrazolo[3,4-d]azepine-8-carboxylate] |
